The results in this text go back to PMC3975032, “ATPase Activity and ATP-dependent Conformational Change in the Co-chaperone HSP70/HSP90-organizing Protein (HOP)” (The Journal of Biological Chemistry, 2014).

In experiment [1] the target is T1, HOP-(1-359), TPR1-TPR2A (ATPase domain) (Homo sapiens, UniProt P31948).
T1 construct: gene STIP1; TPR1-DP1-TPR2A segment, residues 1-359, His6-tagged (pCold I), E. coli BL21
In words: 1H NMR chemical shift change (protein amide region). The class given is binding. The note with it: 20 mM potassium phosphate pH 6.5, 50 mM KCl, 5 mM MgCl2, 25 °C, 10-fold molar excess ATP.

In experiment [2] the target is T2, HOP-(1-543), full-length human HSP70/HSP90-organizing protein (Homo sapiens, UniProt P31948).
T2 construct: gene STIP1; full-length 1-543, His6-tagged (pCold I), E. coli BL21, Ni-NTA and Superdex 200; monomer
In words: 1H NMR titration (ATP H2/H8 shifts), non-linear fit. It is filed as binding.

Experiment [3] addresses T3, HOP-(1-543), full-length human HSP70/HSP90-organizing protein (Homo sapiens, UniProt P31948, D186A).
T3 construct: gene STIP1; full-length 1-543, His6-tagged (pCold I), E. coli BL21, Ni-NTA and Superdex 200; monomer
In words: ATP hydrolysis rate versus ATP concentration. The class given is biochemical. The settings on record: 25 mM HEPES-KOH pH 7.4, 5 mM MgCl2, 50 mM KCl, 37 °C.

Experiment [4] addresses T2, HOP-(1-543), full-length human HSP70/HSP90-organizing protein. In words: protection from TPCK-trypsin digestion, SDS-PAGE. The note with it: 25 mM HEPES-KOH pH 7.4, 5 mM MgCl2, 100 mM KCl, 37 °C, 30 min. It is filed as binding.

T2 sequence (P31948 whole entry): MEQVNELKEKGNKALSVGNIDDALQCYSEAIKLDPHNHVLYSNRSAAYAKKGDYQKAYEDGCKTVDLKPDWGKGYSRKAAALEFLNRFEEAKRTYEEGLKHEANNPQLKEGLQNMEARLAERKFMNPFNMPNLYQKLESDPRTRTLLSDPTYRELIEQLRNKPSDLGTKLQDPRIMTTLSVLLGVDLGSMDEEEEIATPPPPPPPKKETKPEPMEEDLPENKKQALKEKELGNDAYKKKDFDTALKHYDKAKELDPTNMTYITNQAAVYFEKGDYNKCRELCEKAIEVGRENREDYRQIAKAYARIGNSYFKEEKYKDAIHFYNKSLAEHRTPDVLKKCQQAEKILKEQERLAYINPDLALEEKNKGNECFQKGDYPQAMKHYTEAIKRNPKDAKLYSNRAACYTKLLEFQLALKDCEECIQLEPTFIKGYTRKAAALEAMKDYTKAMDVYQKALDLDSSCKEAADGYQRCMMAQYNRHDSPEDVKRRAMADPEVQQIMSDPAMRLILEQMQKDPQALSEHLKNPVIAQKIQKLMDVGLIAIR
T1 sequence (P31948 1-359): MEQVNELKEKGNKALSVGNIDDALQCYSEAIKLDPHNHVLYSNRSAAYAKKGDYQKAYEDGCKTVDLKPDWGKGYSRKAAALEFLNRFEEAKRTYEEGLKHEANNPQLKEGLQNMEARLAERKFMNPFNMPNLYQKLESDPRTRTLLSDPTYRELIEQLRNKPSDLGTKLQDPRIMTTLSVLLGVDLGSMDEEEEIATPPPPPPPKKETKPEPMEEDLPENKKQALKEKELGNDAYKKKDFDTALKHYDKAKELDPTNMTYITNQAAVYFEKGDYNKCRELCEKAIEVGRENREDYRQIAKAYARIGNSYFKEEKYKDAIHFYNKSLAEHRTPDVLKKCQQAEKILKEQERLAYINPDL
T3 sequence (P31948 whole entry D186A): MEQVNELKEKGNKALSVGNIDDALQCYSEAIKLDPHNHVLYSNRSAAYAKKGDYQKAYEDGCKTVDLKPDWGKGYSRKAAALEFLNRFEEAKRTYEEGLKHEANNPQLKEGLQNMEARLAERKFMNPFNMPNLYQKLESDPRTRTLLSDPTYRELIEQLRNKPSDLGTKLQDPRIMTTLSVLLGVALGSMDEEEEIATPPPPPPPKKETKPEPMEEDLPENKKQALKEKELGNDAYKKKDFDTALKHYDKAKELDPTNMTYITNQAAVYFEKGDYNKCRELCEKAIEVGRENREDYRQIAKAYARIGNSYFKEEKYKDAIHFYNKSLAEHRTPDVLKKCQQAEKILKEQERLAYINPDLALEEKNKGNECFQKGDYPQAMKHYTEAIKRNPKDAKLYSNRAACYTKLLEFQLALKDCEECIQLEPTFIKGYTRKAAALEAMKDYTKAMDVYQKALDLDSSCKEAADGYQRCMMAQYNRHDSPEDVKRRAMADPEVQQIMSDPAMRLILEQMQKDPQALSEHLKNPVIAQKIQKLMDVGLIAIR

In general, Kd refers to the free concentration of one partner at which half of the binding sites on the other are occupied at equilibrium, for simple one-to-one binding. With `Nc1ncnc2c1ncn2[C@@H]1O[C@H](COP(=O)(O)OP(=O)(O)OP(=O)(O)O)[C@@H](O)[C@H]1O` [ATP], in experiment [1], the “1H NMR chemical shift change (protein amide region)” value was “These data indicated that ATP directly binds the ATPase domain of HOP”. Besides, the dissociation constant (Kd) in experiment [2] was determined as 350 µM. In experiment [3], the “ATP hydrolysis rate versus ATP concentration” value was “this mutation caused no significant change in ATPase activity”.
Take `Nc1ncnc2c1ncn2[C@@H]1O[C@H](COP(=O)(O)OP(=O)(O)NP(=O)(O)O)[C@@H](O)[C@H]1O` [AMP-PNP, adenosine 5′-(β,γ-imino)triphosphate]: in experiment [4], the “protection efficiency at 5 mM” value is listed as 28.6 ± 10.1%.
Turning to `Nc1ncnc2c1ncn2[C@@H]1O[C@H](COP(=O)(O)OP(=O)(O)O)[C@@H](O)[C@H]1O` [ADP], the “protection efficiency at 5 mM” value in experiment [4] was 31.0 ± 8.9%.
